Results: patent US11352338B2, “Substituted isoindolinones” (BioTheryX, Inc., priority 2018, dated 2022)

Columns and labels:
PDE6D = biological target: T1, PDE6D (Homo sapiens, UniProt O43924+Q96SW2); test: Western blot, degradation of cellular PDE6D in MV-4-11 cells; format: cell-based; conditions: MV4-11; tested at 1 μM, MV-4-11 cells, 6-8 hours; read-out: % Degradation compared to DMSO, PDE6D
T1 construct: endogenous in cells; host or cells: MV-4-11
Description: (§1) MV-4-11 cells were grown in RPMI 1640 media supplemented with 10% fetal bovine serum, streptomycin and penicillin.
(§2) Cells were cultured at approximately 10^6 cells per mL and incubated in DMSO or the indicated compounds for 6-8 hours. Whole cell extracts were prepared using RIPA lysis buffer according to manufacturer's protocol (Pierce). Briefly, 4×10^6 cells were washed once in PBS, the cell pellets were resuspended in RIPA lysis buffer and allowed to incubate for 15 minutes on ice. Cells debris was removed by centrifugation and the cleared whole cell lysates were transferred to new tubes for further analysis.
(§3) For Western blot analysis, whole cell protein extracts were separated on 4-12% SDS-polyacrylamide gels, transferred to nitrocellulose and probed with the indicated primary antibodies. Membranes were subsequently washed and probed with the appropriate IRDye secondary antibodies (LI-COR). The signal was detected using the Odyssey Imaging System (LI-COR).
(§4) The following antibodies were used in these studies: Anti-PDE6D antibody: Santa Cruz Biotechnology, sc-166854 (Dallas, Tex.); Anti-Ikaros: Abcam, ab191394 (Cambridge, Mass.); anti-CK1α antibody: Abcam, ab108296 (Cambridge, Mass.); β-Actin (8H10D10) mouse monoclonal antibody: Cell Signaling Technology, #3700 (Danvers, Mass.); IRDye 680RD Goat anti-rabbit antibody: LI-COR, 926-68071 (Lincoln, Nebr.); and IRDye 800CW Goat anti-mouse antibody: LI-COR, 926-32210 (Lincoln, Nebr.).
(§5) The % degradation values are reported as “A”, “B”, “C”, or “D.” “A” represents a % degradation value of less than 25% (value<25%); “B” represents a % degradation value of equal to or more than 25% and less than 50% (25%≤value<50%); “C” represents a % degradation value of equal to or more than 50% and less than 75% (50%≤value<75%); and “D” represents a % degradation value of equal to or more than 75% (value≥75%). […] was used as control.

CK1α = biological target: T2, CK1α (Homo sapiens, UniProt P48729+Q96SW2); test: Western blot, degradation of cellular CK1α in MV-4-11 cells; format: cell-based; conditions: MV4-11, tested at 1 μM, 6-8 hours, read-out: % Degradation compared to DMSO, CK1α
T2 construct: endogenous in cells; host or cells: MV-4-11
Description: as §1, §2, §3, §4, §5

Ikaros = biological target: T3, Ikaros (Homo sapiens, UniProt Q13422+Q96SW2); test: Western blot, degradation of cellular Ikaros in MV-4-11 cells; format: cell-based; conditions: MV4-11, tested at 1 μM, 6-8 hours, read-out: % Degradation compared to DMSO, Ikaros
T3 construct: endogenous in cells; host or cells: MV-4-11
Description: as §1, §2, §3, §4, §5

IL-1β = IL-1β inhibition, LPS-induced PBMCs or CD14+ monocytes, Meso Scale assay; format: cell-based; conditions: LPS 100 ng/mL 18-24 h, read-out: % Inhibition compared to DMSO, IL-1β; for inhibition at 1 µM: tested at 1 μM; for inhibition at 10 µM: tested at 10 μM
Description: (§6) Either frozen primary blood mononuclear cells (PBMCs) or frozen CD14+ mobilized peripheral blood monocytes were purchased from AllCells (PB003F, Normal Peripheral Blood MNC (Alameda, Calif.)). Cells were quick thawed, washed 1-time with RPMI-1640 (10% FBS/1% Pen-Strep) and plated in 96 well plates at 200,000 cells per well. Cells were pretreated with DMSO only or with the indicated compound for 1 h and then induced with 100 ng/mL lipopolysaccharide (LPS) for 18-24 h. The supernatant was analyzed for IL-1β, IL-6, and TNFα, using Meso Scale assay according to manufacturer's protocol. The negative control wells were treated with DMSO.
(§7) IL-1β, IL-6 and TNFα activities were tested at two different concentrations (1 μM and 10 μM) and the results are shown in Tables 2 and 3 respectively.

IL-6 = IL-6 inhibition, LPS-induced PBMCs or CD14+ monocytes, Meso Scale assay; format: cell-based; conditions: LPS 100 ng/mL 18-24 h, read-out: % Inhibition compared to DMSO, IL-6; for inhibition at 1 µM: tested at 1 μM; for inhibition at 10 µM: tested at 10 μM
Description: as §6, §7

TNFα = TNFα inhibition, LPS-induced PBMCs or CD14+ monocytes, Meso Scale assay; format: cell-based; conditions: LPS 100 ng/mL 18-24 h, read-out: % Inhibition compared to DMSO, TNFα; for inhibition at 1 µM: tested at 1 μM; for inhibition at 10 µM: tested at 10 μM
Description: as §6, §7

IL-2 = IL-2 inhibition assay, anti-CD3 (OKT3) stimulated PBMCs, Mesoscale IL-2 analysis; format: cell-based, human; conditions: Homo sapiens, PBMC, PBMCs on anti-CD3, 24 h, fold difference from DMSO control, read-out: IL-2, % Induction compared to DMSO
Description: For the IL-2 analysis, 96 well plates were precoated with 1 μg/mL anti-human CD3 antibody (OKT3, eBioscience Inc., San Diego, Calif.). After washing with PBS, the indicated compound was added (50 μL/well) followed by PBMCs diluted at 3-4 million cells/mL (150 μL/well). Plates were incubated for 24 h and the supernatants collected for Mesoscale IL-2 analysis. IL-2 activity is measured as fold difference from the DMSO control. […]
In Table 4, the fold-change values are reported as “A”, “B”, “C”, or “D”. “A” represents a fold-change value of equal to or less than 0.5 (value≤0.5); “B” represents a fold-change value of more than 0.5 and equal to or less than 1 (0.5<value≤1); “C” represents a fold-change value of more than 1 and less than 1.5 (1<value<1.5); and “D” represents a fold-change value of equal to or more than 1.5 (value≥1.5).

T3 sequence (Q13422 whole entry): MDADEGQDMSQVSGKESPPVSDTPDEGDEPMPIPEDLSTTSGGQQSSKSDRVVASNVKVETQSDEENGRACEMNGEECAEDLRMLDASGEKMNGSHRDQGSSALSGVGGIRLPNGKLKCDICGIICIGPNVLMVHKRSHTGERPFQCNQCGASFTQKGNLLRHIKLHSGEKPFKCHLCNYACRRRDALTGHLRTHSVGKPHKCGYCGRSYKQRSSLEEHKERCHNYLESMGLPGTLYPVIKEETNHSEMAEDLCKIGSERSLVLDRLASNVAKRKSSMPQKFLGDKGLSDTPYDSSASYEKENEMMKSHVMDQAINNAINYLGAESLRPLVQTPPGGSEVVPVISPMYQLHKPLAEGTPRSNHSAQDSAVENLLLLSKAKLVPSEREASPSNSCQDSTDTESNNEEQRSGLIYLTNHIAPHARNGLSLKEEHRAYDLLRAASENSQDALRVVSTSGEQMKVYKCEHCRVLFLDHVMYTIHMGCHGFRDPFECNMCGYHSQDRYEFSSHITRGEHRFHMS
T3 sequence (Q96SW2 whole entry): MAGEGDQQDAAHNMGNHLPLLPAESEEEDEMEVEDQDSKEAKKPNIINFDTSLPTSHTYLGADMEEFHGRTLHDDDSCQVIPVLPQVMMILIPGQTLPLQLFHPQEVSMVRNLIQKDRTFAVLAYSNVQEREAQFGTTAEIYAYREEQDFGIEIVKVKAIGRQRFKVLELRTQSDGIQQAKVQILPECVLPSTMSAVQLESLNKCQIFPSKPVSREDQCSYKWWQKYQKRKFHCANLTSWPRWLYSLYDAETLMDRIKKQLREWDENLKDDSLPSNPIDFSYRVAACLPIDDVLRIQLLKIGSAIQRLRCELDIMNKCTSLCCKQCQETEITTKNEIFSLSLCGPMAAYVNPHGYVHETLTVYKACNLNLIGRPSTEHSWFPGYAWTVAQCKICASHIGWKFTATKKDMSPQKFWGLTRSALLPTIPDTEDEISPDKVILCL
T3 sequence (Q16531 whole entry partner): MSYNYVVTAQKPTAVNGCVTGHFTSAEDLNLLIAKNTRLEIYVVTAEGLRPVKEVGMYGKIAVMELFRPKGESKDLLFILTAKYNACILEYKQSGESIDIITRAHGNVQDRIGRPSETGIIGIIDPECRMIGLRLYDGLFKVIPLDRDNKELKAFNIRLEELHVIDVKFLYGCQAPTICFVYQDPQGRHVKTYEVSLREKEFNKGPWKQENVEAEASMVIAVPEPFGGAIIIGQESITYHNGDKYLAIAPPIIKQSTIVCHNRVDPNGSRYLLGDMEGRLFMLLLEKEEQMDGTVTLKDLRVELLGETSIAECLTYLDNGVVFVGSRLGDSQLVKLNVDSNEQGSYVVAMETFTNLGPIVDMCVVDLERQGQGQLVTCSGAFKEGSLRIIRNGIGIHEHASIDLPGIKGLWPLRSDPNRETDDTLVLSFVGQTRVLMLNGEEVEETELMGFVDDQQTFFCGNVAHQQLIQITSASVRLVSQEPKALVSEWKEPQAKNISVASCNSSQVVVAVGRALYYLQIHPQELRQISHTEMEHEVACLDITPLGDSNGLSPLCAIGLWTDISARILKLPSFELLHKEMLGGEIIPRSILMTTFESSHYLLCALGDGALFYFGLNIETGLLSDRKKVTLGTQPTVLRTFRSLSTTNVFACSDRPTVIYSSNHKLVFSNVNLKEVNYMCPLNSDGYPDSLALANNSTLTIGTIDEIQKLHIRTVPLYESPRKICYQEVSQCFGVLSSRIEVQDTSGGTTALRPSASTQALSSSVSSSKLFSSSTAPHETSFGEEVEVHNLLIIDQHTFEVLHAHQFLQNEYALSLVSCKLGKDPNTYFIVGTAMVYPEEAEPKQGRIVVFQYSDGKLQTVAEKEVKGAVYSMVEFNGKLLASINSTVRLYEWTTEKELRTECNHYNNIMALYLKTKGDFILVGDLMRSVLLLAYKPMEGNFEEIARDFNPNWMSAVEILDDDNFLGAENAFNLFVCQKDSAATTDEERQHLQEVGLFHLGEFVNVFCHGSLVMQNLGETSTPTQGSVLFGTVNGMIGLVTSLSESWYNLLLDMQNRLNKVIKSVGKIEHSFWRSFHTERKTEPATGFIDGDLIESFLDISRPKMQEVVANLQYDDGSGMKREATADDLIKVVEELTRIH
T1 sequence (O43924 whole entry): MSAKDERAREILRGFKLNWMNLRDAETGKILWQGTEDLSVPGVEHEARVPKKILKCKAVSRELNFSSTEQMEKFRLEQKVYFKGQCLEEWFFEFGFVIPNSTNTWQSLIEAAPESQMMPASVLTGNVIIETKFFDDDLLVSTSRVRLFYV
T1 sequence (Q96SW2 whole entry): as the sequence (Q96SW2 whole entry) above
T1 sequence (Q16531 whole entry partner): as the sequence (Q16531 whole entry partner) above
T2 sequence (P48729 whole entry): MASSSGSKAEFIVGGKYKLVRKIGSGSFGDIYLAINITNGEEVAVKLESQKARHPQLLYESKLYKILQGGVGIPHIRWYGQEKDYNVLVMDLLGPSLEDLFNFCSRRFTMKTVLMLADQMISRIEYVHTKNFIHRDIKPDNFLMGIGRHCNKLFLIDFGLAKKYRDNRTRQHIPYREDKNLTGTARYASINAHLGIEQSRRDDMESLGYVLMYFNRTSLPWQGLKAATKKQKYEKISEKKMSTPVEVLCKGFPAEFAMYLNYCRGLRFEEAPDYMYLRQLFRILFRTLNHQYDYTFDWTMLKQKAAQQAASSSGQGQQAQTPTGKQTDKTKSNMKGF
T2 sequence (Q96SW2 whole entry): as the sequence (Q96SW2 whole entry) above
T2 sequence (Q16531 whole entry partner): as the sequence (Q16531 whole entry partner) above

Compound | Dmax at 1 µM (PDE6D) [%] | Dmax at 1 µM (CK1α) [%] | Dmax at 1 µM (Ikaros) [%] | inhibition at 1 µM (IL-1β) [%] | inhibition at 10 µM (IL-1β) [%] | inhibition at 1 µM (IL-6) [%] | inhibition at 10 µM (IL-6) [%] | inhibition at 1 µM (TNFα) [%] | inhibition at 10 µM (TNFα) [%] | fold induction at 1 µM (IL-2) | fold induction at 10 µM (IL-2)
Cc1c(F)cc2c(c1C1CCCC1)CN(C1CCC(=O)NC1=O)C2=O (stereo not drawn) [Compound 21, 3-(4-Cyclopentyl-6-fluoro-5-methyl-1-oxoisoindolin-2-yl) piperidine-2,6-dione] | ≥ 75 | 25 to 50 | 25 to 50 | < 10 | < 10 | < 10 | < 10 | < 10 | 25 to 50 | ≤ 0.5 | ≤ 0.5
C[C@H](c1cc(F)cc2c1CN(C1CCC(=O)NC1=O)C2=O)C(F)(F)F (stereo partly drawn) [Compound 23] | 25 to 50 | 50 to 75 | < 25 | < 10 | < 10 | < 10 | < 10 | < 10 | 25 to 50 | 0.5 to 1 | 0.5 to 1
O=C1CCC(N2Cc3c(cccc3C3CC3)C2=O)C(=O)N1 (stereo not drawn) [Compound 13] | 50 to 75 | 50 to 75 | 50 to 75 | 25 to 50 | 25 to 50 | < 10 | < 10 | > 50 | > 50 | ≥ 1.5 | ≥ 1.5
O=C1CCC(N2Cc3c(cc(F)cc3C3CCC(F)(F)CC3)C2=O)C(=O)N1 (stereo not drawn) [Compound 11] | ≥ 75 | 25 to 50 | ≥ 75 | < 10 | < 10 | < 10 | < 10 | < 10 | < 10 | 0.5 to 1 | 0.5 to 1

Continued, in another order:

Dmax at 1 µM (PDE6D) [%] | Dmax at 1 µM (CK1α) [%] | Dmax at 1 µM (Ikaros) [%] | Compound | inhibition at 1 µM (IL-1β) [%] | inhibition at 10 µM (IL-1β) [%] | inhibition at 1 µM (IL-6) [%] | inhibition at 10 µM (IL-6) [%] | inhibition at 1 µM (TNFα) [%] | inhibition at 10 µM (TNFα) [%] | fold induction at 1 µM (IL-2) | fold induction at 10 µM (IL-2)
50 to 75 | 25 to 50 | 25 to 50 | O=C1CCC(N2Cc3c(cc(F)cc3C3CC4CCC3C4)C2=O)C(=O)N1 (stereo not drawn) [Compound 25] | < 10 | 25 to 50 | < 10 | < 10 | 10 to 25 | 10 to 25 | 1 to 1.5 | 0.5 to 1
≥ 75 | < 25 | < 25 | O=C1CCC(N2Cc3c(cc(F)cc3C3=CCC(F)(F)CC3)C2=O)C(=O)N1 (stereo not drawn) [Compound 9] | < 10 | < 10 | 10 to 25 | 10 to 25 | < 10 | 25 to 50 | 0.5 to 1 | 0.5 to 1
≥ 75 | 25 to 50 | < 25 | CC1CC(=O)NC(=O)C1N1Cc2c(cc(F)cc2C2CCCC2)C1=O (stereo not drawn) [Compound 6, 3-(4-cyclopentyl-6-fluoro-1-oxoisoindolin-2-yl)-4-methylpiperidine-2,6-dione] | < 10 | 10 to 25 | < 10 | < 10 | 10 to 25 | > 50 | 0.5 to 1 | ≤ 0.5
25 to 50 | 25 to 50 | 50 to 75 | COc1cc2c(c(C3CCCC3)c1)CN(C1CCC(=O)NC1=O)C2=O (stereo not drawn) [Compound 14] | < 10 | 10 to 25 | < 10 | < 10 | 10 to 25 | 25 to 50 | 0.5 to 1 | 0.5 to 1
< 25 | < 25 | < 25 | O=C1CCC(N2Cc3c(cc(Cl)cc3C3CCCC3)C2=O)C(=O)N1 (stereo not drawn) [Compound 28] | < 10 | < 10 | < 10 | 10 to 25 | 10 to 25 | 10 to 25 | 1 to 1.5 | 0.5 to 1
